Key:
[1] = system: Solanum nigrum; assay: Post-emergence herbicidal activity; type: in vivo; settings: 500 g/ha, evaluated fifteen days after the treatment, damage vs blank
Protocol: (§1) Determination of the Herbicidal Activity and Phyto-Toxicity in Post-emergence The herbicidal activity of the compounds of the invention in post-emergence was evaluated according to the following operative procedures. The plant species of interest (weeds or crops) were sown in pots with an upper diameter of 10 cm, a height of 10 cm and containing sandy soil. 10 pots were used for each plant species. Water was added to each pot in such a quantity as to germinate the seeds. The pots were divided into two groups, each containing 5 pots for each weed or crop. Fifteen days after sowing (ten, in the case of wheat), when the weeds and crops, according to the species, were 10-15 cm high, the first set of pots was treated with a hydro-acetonic dispersion containing acetone at 10% in volume, the product under evaluation at the desired concentration and Tween 20 at 0.5%. The second set was treated with a hydro-acetonic solution only, containing acetone at 10% in volume and Tween 20 at 0.5%, and was used as comparison (blank). All pots were kept under observation in a conditioned environment under the following conditions: • temperature: 24° C.; • relative humidity: 60%; • photo-period: 16 hours; • light intensity: 10000 lux. The pots were uniformly watered every other day so as to ensure a humidity degree sufficient for a good development of the plants. The herbicidal activity was evaluated fifteen days after the treatment, on the basis of the following values which refer to the percentage of damage tested on the treated plants with respect to the non-treated plants (blank): [table]

[2] = system: Portulaca oleracea; assay: Post-emergence herbicidal activity; type: in vivo; settings: 500 g/ha, evaluated fifteen days after the treatment, damage vs blank
Protocol: as §1

[3] = system: Stellaria media; assay: Post-emergence herbicidal activity; type: in vivo; settings: 500 g/ha, evaluated fifteen days after the treatment, damage vs blank
Protocol: as §1

[4] = system: Galium aparine; assay: Post-emergence herbicidal activity; type: in vivo; settings: 500 g/ha, evaluated fifteen days after the treatment, damage vs blank
Protocol: as §1

[5] = system: Chenopodium album; assay: Post-emergence herbicidal activity; type: in vivo; settings: 500 g/ha, evaluated fifteen days after the treatment, damage vs blank
Protocol: as §1

[6] = system: Abutilon theofrasti; assay: Post-emergence herbicidal activity; type: in vivo; settings: 500 g/ha, evaluated fifteen days after the treatment, damage vs blank
Protocol: as §1

[7] = system: Ipomea purpurea; assay: Pre-emergence herbicidal activity; type: in vivo; settings: 500 g/ha, evaluated fifteen days after the treatment, damage vs blank
Protocol: (§2) Determination of the Herbicidal Activity and Phyto-Toxicity in Pre-Emergence The herbicidal activity of the compounds of the invention in pre-emergence was evaluated according to the following operative procedures. The plant species of interest (weeds or crops) were sown in pots with an upper diameter of 10 cm, a height of 10 cm and containing sandy soil. 10 pots were used for each plant species. Water was added to each pot in such a quantity as to germinate the seeds. The pots were divided into two groups, each containing 5 pots for each weed or crop. After one day from the sowing, the first set of pots was treated with a hydro-acetonic dispersion containing acetone at 10% in volume, the product under evaluation at the desired concentration and Tween 20 at 0.5%. The second set was treated with a hydro-acetonic solution only, containing acetone at 10% in volume and Tween 20 at 0.5%, and was used as comparison (blank). All pots were kept under observation in a conditioned environment under the following conditions: • temperature: 24° C.; • relative humidity: 60%; • photoperiod: 16 hours; • light intensity: 10000 lux. The pots were uniformly watered in order to ensure a sufficient humidity degree for a good development of the plants. Fifteen days after the treatment, the herbicidal activity was evaluated on the basis of the following values, which refer to the damage percentage tested on the treated plants, with respect to the non-treated plants (blank): [table]

[8] = system: Solanum nigrum; assay: Pre-emergence herbicidal activity; type: in vivo; settings: 500 g/ha, evaluated fifteen days after the treatment, damage vs blank
Protocol: as §2

[9] = system: Portulaca oleracea; assay: Pre-emergence herbicidal activity; type: in vivo; settings: 500 g/ha, evaluated fifteen days after the treatment, damage vs blank
Protocol: as §2

[10] = system: Stellaria media; assay: Pre-emergence herbicidal activity; type: in vivo; settings: 500 g/ha, evaluated fifteen days after the treatment, damage vs blank
Protocol: as §2

[11] = system: Galium aparine; assay: Pre-emergence herbicidal activity; type: in vivo; settings: 500 g/ha, evaluated fifteen days after the treatment, damage vs blank
Protocol: as §2

[12] = system: Chenopodium album; assay: Pre-emergence herbicidal activity; type: in vivo; settings: 500 g/ha, evaluated fifteen days after the treatment, damage vs blank
Protocol: as §2

[13] = system: Abutilon theofrasti; assay: Pre-emergence herbicidal activity; type: in vivo; settings: 500 g/ha, evaluated fifteen days after the treatment, damage vs blank
Protocol: as §2

[14] = system: Amaranthus retroflexus; assay: Pre-emergence herbicidal activity; type: in vivo; settings: 500 g/ha, evaluated fifteen days after the treatment, damage vs blank
Protocol: as §2

CS(=O)(=O)c1ccc(C(=O)C(C(=O)C2CC2)c2ccc([N+](=O)[O-])cc2[N+](=O)[O-])c(Cl)c1 (stereo not shown)
67 °C: melting point

CS(=O)(=O)c1ccc(C(=O)C(C(=O)C(F)(F)F)c2ccccn2)c(Cl)c1 (stereo not shown) [Compound N-616, 1-[2-chloro-4-(methylsuiphonyl)phenyl]-2-(pyridin-2-yl)-4,4,4-trifluorobutane-1,3-dione]
189 °C: melting point

Cn1nnc(C(C(=O)c2ccc(S(C)(=O)=O)cc2Cl)C(=O)C2CC2)n1 (stereo not shown) [Compound N^o 6, 1-[2-chloro-4-(methylsulphonyl)phenyl]-3-cyclopropyl-2-(2-methyl-2H-tetrazol-5-yl)propane-1,3-dione]
5 (91% damage - death of the plant.): Post-emergence herbicidal activity SN [1] | Post-emergence herbicidal activity PO [2] | Post-emergence herbicidal activity SM [3] | Post-emergence herbicidal activity GA [4] | Post-emergence herbicidal activity CA [5] | Post-emergence herbicidal activity AT [6] | Pre-emergence herbicidal activity IP [7] | Pre-emergence herbicidal activity SN [8] | Pre-emergence herbicidal activity PO [9] | Pre-emergence herbicidal activity SM [10] | Pre-emergence herbicidal activity GA [11] | Pre-emergence herbicidal activity CA [12] | Pre-emergence herbicidal activity AT [13] | Pre-emergence herbicidal activity AR [14]

Cn1nnnc1C(C(=O)c1ccc(S(C)(=O)=O)cc1Cl)C(=O)C1CC1 (stereo not shown) [Compound N^o 7, 1-[2-chloro-4-(methylsulphonyl)phenyl]-3-cyclopropyl-2-(1-methyl-1H-tetrazol-5-yl)propane-1,3-dione]
5 (91% damage - death of the plant.): Pre-emergence herbicidal activity SN [8] | Pre-emergence herbicidal activity PO [9] | Pre-emergence herbicidal activity SM [10] | Pre-emergence herbicidal activity CA [12] | Pre-emergence herbicidal activity AT [13] | Pre-emergence herbicidal activity AR [14]

Cc1noc(C(C(=O)c2ccc(S(C)(=O)=O)cc2Cl)C(=O)C2CC2)n1 (stereo not shown) [Compound N^o 11, 1-[2-chloro-4-(methylsulphonyl)phenyl]-3-cyclopropyl-2-(3-methyl-1,2,4-oxadiazol-5-yl)propane-1,3-dione]
5 (91% damage - death of the plant.): Post-emergence herbicidal activity SN [1] | Post-emergence herbicidal activity CA [5] | Post-emergence herbicidal activity AT [6] | Pre-emergence herbicidal activity IP [7] | Pre-emergence herbicidal activity PO [9] | Pre-emergence herbicidal activity CA [12] | Pre-emergence herbicidal activity AT [13]

CS(=O)(=O)c1ccc(C(=O)C(C(=O)C2CC2)n2cncn2)c(Cl)c1 (stereo not shown) [Compound No 460, 1-[2-chloro-4-(methylsulphonyl)phenyl]-3-cyclopropyl-2-(1,2,4-triazol-1-yl)propane-1,3-dione]
162 °C: melting point

CS(=O)(=O)c1ccc(C(=O)C(C(=O)C2CC2)c2nnc(C(F)(F)F)s2)c(Cl)c1 (stereo not shown) [Compound No 2918, 1-[2-chloro-4-(thylsulphonyl)phenyl]-3-cyclopropyl-2-(5-trifluoromethyl-1,3,4-thiadiazol-2-yl)propane-1,3-dione]
185 °C: melting point

From US7982047B2, “Derivatives of 1,3-diones having a herbicidal activity” (Isagro Ricerca S.r.l., priority 2003, dated 2011)
